{"source": "paper PMC7180948", "about": "“New Insights into 4-Anilinoquinazolines as Inhibitors of Cardiac Troponin I–Interacting Kinase (TNNi3K)” (Molecules, 2020)", "assay_in_all_cases": "biochemical", "parameters_in_all_cases": "KINOMEscan competition binding panel (Eurofins DiscoverX), single concentration, % inhibition", "details_in_all_cases": "read-out: 7 at 1 µM % inhibition", "key": {"ALK(L1196M)": {"target": "ALK(L1196M) (Homo sapiens, UniProt Q9UM73, L1196M)", "method_in_brief": "(§1)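 Selectivity profile from a KINOMEscan run against >400 human kinases; test concentration 1 µM.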"}, "ANKK1": {"target": "ANKK1 (Homo sapiens, UniProt Q8NFD2)", "method_in_brief": "as §1"}, "CASK": {"target": "CASK (Homo sapiens, UniProt O14936)", "method_in_brief": "as §1"}, "CDK5": {"target": "CDK5 (Homo sapiens, UniProt Q00535)", "sequence (Q00535 whole entry)": "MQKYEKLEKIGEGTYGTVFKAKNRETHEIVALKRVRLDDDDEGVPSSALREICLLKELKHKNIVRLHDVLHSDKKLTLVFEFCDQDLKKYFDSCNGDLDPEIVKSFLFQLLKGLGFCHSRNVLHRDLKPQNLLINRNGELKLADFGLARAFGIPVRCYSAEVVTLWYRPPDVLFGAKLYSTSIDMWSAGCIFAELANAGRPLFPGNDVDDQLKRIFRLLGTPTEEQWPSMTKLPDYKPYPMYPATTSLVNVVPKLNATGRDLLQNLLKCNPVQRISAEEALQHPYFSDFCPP", "method_in_brief": "as §1"}, "CLK3": {"target": "CLK3 (Homo sapiens, UniProt P49761)", "method_in_brief": "as §1"}, "CSNK1G3": {"target": "CSNK1G3 (Homo sapiens, UniProt Q9Y6M4)", "method_in_brief": "as §1"}, "DCAMKL1": {"target": "T1, DCAMKL1 (Homo sapiens, UniProt O15075)", "T1 construct": "gene DCLK1", "method_in_brief": "as §1"}, "DYRK1B": {"target": "DYRK1B (Homo sapiens, UniProt Q9Y463)", "sequence (Q9Y463 whole entry)": "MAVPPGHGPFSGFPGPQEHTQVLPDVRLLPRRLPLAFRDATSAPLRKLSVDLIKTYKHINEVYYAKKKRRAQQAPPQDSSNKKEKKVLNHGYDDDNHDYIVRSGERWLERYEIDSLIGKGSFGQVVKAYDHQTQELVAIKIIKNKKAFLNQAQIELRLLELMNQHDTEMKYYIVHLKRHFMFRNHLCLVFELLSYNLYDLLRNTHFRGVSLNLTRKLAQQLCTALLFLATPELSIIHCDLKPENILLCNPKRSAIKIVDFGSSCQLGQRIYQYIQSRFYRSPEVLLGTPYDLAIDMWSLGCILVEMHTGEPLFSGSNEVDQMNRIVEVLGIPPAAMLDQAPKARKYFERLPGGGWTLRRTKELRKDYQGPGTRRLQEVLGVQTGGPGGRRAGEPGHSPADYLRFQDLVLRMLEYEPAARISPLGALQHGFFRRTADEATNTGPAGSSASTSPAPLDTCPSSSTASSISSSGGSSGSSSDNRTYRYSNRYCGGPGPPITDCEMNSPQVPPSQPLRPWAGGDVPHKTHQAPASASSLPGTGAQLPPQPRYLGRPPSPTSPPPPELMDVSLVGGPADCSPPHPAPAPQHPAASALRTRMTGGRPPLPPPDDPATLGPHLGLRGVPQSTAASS", "method_in_brief": "as §1"}, "ERK5": {"target": "T2, ERK5 (Homo sapiens, UniProt Q13164)", "T2 construct": "gene MAPK7", "method_in_brief": "as §1"}, "FGFR1": {"target": "FGFR1 (Homo sapiens, UniProt P11362)", "method_in_brief": "as §1"}, "FGR": {"target": "FGR (Homo sapiens, UniProt P09769)", "method_in_brief": "as §1"}, "ICK": {"target": "T3, ICK (Homo sapiens, UniProt Q9UPZ9)", "T3 construct": "gene CILK1", "method_in_brief": "as §1"}, "JNK2": {"target": "T4, JNK2 (Homo sapiens, UniProt P45984)", "T4 construct": "gene MAPK9", "method_in_brief": "as §1"}, "MAP3K4": {"target": "MAP3K4 (Homo sapiens, UniProt Q9Y6R4)", "method_in_brief": "as §1"}, "MKNK2": {"target": "MKNK2 (Homo sapiens, UniProt Q9HBH9)", "sequence (Q9HBH9 whole entry)": "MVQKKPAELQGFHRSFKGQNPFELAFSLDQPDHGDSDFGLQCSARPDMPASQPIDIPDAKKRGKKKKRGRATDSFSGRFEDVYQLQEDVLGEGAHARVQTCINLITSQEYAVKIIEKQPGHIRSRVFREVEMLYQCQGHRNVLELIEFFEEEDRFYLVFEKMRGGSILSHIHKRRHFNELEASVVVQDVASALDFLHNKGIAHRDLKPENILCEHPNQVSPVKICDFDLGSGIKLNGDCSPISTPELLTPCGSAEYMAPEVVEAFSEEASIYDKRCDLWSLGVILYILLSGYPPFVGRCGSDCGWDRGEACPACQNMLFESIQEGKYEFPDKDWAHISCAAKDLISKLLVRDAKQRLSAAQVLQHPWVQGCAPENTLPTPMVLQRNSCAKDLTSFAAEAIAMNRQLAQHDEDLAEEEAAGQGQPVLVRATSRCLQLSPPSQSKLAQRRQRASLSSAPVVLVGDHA", "method_in_brief": "as §1"}, "MST2": {"target": "T5, MST2 (Homo sapiens, UniProt Q13188)", "T5 construct": "gene STK3", "method_in_brief": "as §1"}, "NDR2": {"target": "T6, NDR2 (Homo sapiens, UniProt Q9Y2H1)", "T6 construct": "gene STK38L", "method_in_brief": "as §1"}, "NEK11": {"target": "NEK11 (Homo sapiens, UniProt Q8NG66)", "method_in_brief": "as §1"}, "RET(V804L)": {"target": "RET(V804L) (Homo sapiens, UniProt P07949, V804L)", "sequence (P07949 whole entry V804L)": "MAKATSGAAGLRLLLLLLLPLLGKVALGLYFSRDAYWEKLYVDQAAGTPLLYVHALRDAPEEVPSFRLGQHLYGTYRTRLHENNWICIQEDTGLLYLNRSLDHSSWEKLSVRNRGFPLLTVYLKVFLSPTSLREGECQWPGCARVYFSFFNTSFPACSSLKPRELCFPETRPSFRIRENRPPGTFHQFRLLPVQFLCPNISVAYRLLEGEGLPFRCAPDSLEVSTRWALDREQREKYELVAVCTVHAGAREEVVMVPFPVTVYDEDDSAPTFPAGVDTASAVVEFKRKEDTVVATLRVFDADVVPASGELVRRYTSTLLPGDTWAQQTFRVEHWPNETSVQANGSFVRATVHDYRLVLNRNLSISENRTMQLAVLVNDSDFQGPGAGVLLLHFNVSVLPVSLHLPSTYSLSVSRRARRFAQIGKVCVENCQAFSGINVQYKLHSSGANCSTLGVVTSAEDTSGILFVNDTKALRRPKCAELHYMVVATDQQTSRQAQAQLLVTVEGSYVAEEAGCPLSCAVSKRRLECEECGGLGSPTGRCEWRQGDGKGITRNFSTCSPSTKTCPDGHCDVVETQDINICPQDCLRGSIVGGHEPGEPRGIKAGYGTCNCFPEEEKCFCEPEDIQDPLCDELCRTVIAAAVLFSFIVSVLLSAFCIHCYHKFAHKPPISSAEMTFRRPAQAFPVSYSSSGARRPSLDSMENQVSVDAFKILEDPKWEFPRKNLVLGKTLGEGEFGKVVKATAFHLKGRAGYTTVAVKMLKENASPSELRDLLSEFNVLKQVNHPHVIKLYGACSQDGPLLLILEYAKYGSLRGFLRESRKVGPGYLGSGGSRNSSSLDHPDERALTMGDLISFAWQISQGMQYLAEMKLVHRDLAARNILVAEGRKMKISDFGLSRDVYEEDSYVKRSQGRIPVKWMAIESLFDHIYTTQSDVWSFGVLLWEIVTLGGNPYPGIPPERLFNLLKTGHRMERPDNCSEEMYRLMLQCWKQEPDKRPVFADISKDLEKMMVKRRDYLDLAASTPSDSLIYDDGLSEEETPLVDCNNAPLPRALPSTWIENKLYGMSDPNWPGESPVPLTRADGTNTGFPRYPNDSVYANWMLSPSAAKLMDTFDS", "method_in_brief": "as §1"}, "[1]": {"target": "T7, RSK1(Kin.Dom.2-C-terminal) (Homo sapiens, UniProt Q15418)", "T7 construct": "gene RPS6KA1; Kin.Dom.2-C-terminal", "method_in_brief": "as §1"}, "TEC": {"target": "TEC (Homo sapiens, UniProt P42680)", "sequence (P42680 whole entry)": "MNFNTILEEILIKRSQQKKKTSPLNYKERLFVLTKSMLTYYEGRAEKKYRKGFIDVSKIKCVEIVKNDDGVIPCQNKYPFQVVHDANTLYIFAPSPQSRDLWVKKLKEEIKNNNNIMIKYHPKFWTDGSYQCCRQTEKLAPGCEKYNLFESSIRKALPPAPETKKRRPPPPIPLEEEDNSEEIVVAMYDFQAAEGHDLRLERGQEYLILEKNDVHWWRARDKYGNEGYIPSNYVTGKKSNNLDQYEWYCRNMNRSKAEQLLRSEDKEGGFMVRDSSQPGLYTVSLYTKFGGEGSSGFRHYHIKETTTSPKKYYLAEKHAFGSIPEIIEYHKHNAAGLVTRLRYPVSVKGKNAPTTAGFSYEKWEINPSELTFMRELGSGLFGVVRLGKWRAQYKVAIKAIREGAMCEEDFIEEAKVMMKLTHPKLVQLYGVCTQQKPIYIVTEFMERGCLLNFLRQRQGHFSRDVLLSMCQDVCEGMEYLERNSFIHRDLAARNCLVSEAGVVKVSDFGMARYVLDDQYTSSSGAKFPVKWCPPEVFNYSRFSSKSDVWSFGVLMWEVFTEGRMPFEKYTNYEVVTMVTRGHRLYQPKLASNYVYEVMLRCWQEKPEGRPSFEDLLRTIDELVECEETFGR", "method_in_brief": "as §1"}, "TGFBR1": {"target": "TGFBR1 (Homo sapiens, UniProt P36897)", "method_in_brief": "as §1"}, "TIE2": {"target": "T8, TIE2 (Homo sapiens, UniProt Q02763)", "T8 construct": "gene TEK", "T8 sequence (Q02763 whole entry)": "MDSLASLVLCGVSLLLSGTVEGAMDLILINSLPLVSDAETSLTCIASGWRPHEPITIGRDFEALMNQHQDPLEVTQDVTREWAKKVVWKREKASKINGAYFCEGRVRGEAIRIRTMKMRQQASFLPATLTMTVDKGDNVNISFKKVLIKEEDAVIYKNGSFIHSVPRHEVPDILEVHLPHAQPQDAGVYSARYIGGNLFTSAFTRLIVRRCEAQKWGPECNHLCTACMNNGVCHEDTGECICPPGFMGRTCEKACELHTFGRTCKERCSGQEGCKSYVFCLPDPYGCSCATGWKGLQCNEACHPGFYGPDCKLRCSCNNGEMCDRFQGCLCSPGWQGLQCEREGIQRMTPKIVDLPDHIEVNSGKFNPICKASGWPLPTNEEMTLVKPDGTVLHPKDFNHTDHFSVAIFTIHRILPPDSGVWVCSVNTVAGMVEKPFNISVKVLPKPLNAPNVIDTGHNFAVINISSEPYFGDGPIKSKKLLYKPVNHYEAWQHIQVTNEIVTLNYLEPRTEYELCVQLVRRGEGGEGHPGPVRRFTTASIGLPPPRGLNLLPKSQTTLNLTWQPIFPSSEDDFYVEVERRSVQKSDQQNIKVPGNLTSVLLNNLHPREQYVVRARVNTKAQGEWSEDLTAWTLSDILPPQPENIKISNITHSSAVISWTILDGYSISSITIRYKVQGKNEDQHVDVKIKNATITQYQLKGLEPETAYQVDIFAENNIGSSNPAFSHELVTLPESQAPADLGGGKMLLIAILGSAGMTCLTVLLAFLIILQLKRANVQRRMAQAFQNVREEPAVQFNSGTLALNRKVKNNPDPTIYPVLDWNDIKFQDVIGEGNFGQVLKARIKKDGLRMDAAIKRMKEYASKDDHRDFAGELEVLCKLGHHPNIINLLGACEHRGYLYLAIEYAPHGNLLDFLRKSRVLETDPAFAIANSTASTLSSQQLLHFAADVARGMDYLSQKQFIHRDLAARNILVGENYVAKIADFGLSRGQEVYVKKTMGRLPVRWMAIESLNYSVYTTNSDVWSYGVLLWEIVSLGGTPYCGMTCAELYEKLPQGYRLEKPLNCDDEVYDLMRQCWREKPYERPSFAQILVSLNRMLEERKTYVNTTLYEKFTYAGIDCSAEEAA", "method_in_brief": "as §1"}, "WEE1": {"target": "WEE1 (Homo sapiens, UniProt P30291)", "sequence (P30291 whole entry)": "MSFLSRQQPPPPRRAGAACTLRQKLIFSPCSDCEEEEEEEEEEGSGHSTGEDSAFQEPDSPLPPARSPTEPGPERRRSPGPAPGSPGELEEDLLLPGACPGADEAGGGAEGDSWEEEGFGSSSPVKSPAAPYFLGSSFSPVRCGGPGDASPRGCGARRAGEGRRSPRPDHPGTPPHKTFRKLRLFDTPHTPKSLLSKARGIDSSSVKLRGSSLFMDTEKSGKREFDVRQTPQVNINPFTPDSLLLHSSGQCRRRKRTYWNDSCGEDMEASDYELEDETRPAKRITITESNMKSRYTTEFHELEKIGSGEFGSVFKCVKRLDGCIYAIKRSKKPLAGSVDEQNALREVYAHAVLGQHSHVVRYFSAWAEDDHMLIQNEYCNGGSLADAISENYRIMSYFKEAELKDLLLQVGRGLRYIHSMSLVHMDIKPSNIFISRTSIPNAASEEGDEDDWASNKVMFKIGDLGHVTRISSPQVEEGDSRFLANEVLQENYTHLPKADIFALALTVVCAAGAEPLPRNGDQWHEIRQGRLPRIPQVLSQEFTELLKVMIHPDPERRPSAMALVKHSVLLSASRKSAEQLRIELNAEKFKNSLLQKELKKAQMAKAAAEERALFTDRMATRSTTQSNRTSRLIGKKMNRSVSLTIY", "method_in_brief": "as §1"}}}
{"smiles": "CNS(=O)(=O)c1ccc(N(C)C)c(Nc2ncnc3cc(OC)c(OC)cc23)c1", "note": "[compound 7, 3-((6,7-dimethoxyquinazolin-4-yl)amino)-4-(dimethylamino)-N-methylbenzenesulfonamide]", "values": [{"measurement": "inhibition at 1 µM", "setting": "ALK(L1196M)", "result": 5, "unit": "%"}, {"measurement": "inhibition at 1 µM", "setting": "ANKK1", "result": 19, "unit": "%"}, {"measurement": "inhibition at 1 µM", "setting": "CASK", "result": 0, "unit": "%"}, {"measurement": "inhibition at 1 µM", "setting": "CDK5", "result": 0, "unit": "%"}, {"measurement": "inhibition at 1 µM", "setting": "CLK3", "result": 18, "unit": "%"}, {"measurement": "inhibition at 1 µM", "setting": "CSNK1G3", "result": 11, "unit": "%"}, {"measurement": "inhibition at 1 µM", "setting": "DCAMKL1", "result": 12, "unit": "%"}, {"measurement": "inhibition at 1 µM", "setting": "DYRK1B", "result": 0, "unit": "%"}, {"measurement": "inhibition at 1 µM", "setting": "ERK5", "result": 6, "unit": "%"}, {"measurement": "inhibition at 1 µM", "setting": "FGFR1", "result": 20, "unit": "%"}, {"measurement": "inhibition at 1 µM", "setting": "FGR", "result": 0, "unit": "%"}, {"measurement": "inhibition at 1 µM", "setting": "ICK", "result": 7, "unit": "%"}, {"measurement": "inhibition at 1 µM", "setting": "JNK2", "result": 0, "unit": "%"}, {"measurement": "inhibition at 1 µM", "setting": "MAP3K4", "result": 0, "unit": "%"}, {"measurement": "inhibition at 1 µM", "setting": "MKNK2", "result": 13, "unit": "%"}, {"measurement": "inhibition at 1 µM", "setting": "MST2", "result": 0, "unit": "%"}, {"measurement": "inhibition at 1 µM", "setting": "NDR2", "result": 9, "unit": "%"}, {"measurement": "inhibition at 1 µM", "setting": "NEK11", "result": 0, "unit": "%"}, {"measurement": "inhibition at 1 µM", "setting": "RET(V804L)", "result": 0, "unit": "%"}, {"measurement": "inhibition at 1 µM", "setting": "[1]", "result": 0, "unit": "%"}, {"measurement": "inhibition at 1 µM", "setting": "TEC", "result": 0, "unit": "%"}, {"measurement": "inhibition at 1 µM", "setting": "TGFBR1", "result": 0, "unit": "%"}, {"measurement": "inhibition at 1 µM", "setting": "TIE2", "result": 0, "unit": "%"}, {"measurement": "inhibition at 1 µM", "setting": "WEE1", "result": 0, "unit": "%"}]}
